According to patent US10562891B2, “Quinazolinones as PARP14 inhibitors” (Ribon Therapeutics Inc., priority 2017, dated 2020):
Structures can show the parent of a compound that is named as a salt.

The compounds below were run against catalytic domain of human PARP14 (Homo sapiens (Human), UniProt Q460N5) (assay: Enzymatic assay for inhibition of PARP14 (DELFIA, auto-modification with biotin-NAD)). Conditions: auto-modification of PARP14 by biotin-NAD, 50 nM PARP14, 3 μM biotin-NAD.
Chain of catalytic domain of human PARP14 (Q460N5 1611-1801): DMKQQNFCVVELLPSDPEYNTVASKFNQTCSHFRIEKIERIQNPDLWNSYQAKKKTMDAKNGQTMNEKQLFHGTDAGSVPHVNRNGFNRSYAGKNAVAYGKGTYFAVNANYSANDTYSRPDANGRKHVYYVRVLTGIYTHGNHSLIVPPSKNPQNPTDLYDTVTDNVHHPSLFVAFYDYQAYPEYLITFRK
Assay type: biochemical
Procedure, shortened: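 DELFIA auto-modification read-out: europium-streptavidin bound to biotin-NAD incorporated onto nickel-captured His-TEV PARP14 catalytic domain. Compound preincubated 30 min, then 50 nM enzyme with 3 μM biotin-NAD reacted 3 h, all at 25 °C, pH 8, then NAD quench. Percent inhibition normalized to rucaparib/DMSO wells, fitted (4- or 3-parameter) for IC50.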
`O=c1[nH]c(CSC2CCOCC2)nc2cc(N[C@H]3CC[C@H](N4CCOCC4)CC3)cc(F)c12` [Example 233, 5-Fluoro-7-((trans-4-morpholinocyclohexyl)amino)-2-(((tetrahydro-2H-pyran-4-yl)thio)methyl)quinazolin-4(3H)-one Trifluoroacetate] showed an IC50 of less than 1000 nM.
Work on `Cc1cccc2c(=O)[nH]c(CS[C@H]3CCC[C@@H](N)CC3)nc12` (relative stereo) [Example 55, 2-(((cis-4-Aminocycloheptyl)thio)methyl)-8-methylquinazolin-4(3H)-one Trifluoroacetate] yielded an IC50 of 1000 to 10000 nM.
Work on `O=c1[nH]c(CSC2CCOCC2)nc2cc(NC3CCCNC3)ccc12` (centres unmarked) [Example 127, 7-(3-Piperidylamino)-2-(tetrahydropyran-4-ylsulfanylmethyl)-3H-quinazolin-4-one] yielded an IC50 greater than 10000 nM.
With `Cc1cccc2c(=O)[nH]c(CS[C@H]3C[C@H](O)C3)nc12` [Example 47, 2-(((trans-3-Hydroxycyclobutyl)thio)methyl)-8-methylquinazolin-4(3H)-one] the IC50 was 1000 to 10000 nM.
With `C[C@]1(O)CC[C@H](SCc2nc3cc(OCC4CCOC4)cc(F)c3c(=O)[nH]2)CC1` (some centres unmarked) [Example 373] the IC50 was less than 1000 nM.
Work on `O=c1[nH]c(CSC2CCOCC2)nc2cc(CCC3CCCCC3)cc(F)c12` [Example 368] yielded an IC50 of 1000 to 10000 nM.
Compound `Cc1ccc(C(F)(F)F)c2c(=O)[nH]c(CSC3CCOCC3)nc12` [Example 35, 8-Methyl-2-(((tetrahydro-2H-pyran-4-yl)thio)methyl)-5-(trifluoromethyl)quinazolin-4(3H)-one] has an IC50 of less than 1000 nM.
With `Cc1cccc2c(=O)[nH]c(CS[C@H]3CC[C@H](O)CC3)nc12` [Example 23, 2-((((trans)-4-Hydroxycyclohexyl)thio)methyl)-8-methylquinazolin-4(3H)-one] the IC50 was less than 1000 nM.
In the case of `CO[C@H]1CC[C@H](SCc2nc3cc(OCC4CCOCC4)cc(F)c3c(=O)[nH]2)CC1` [Example 356], the IC50 is reported as less than 1000 nM.
`O=c1[nH]c(CSC2CCOCC2)nc2cc(NC3CCCCC3(F)F)cc(F)c12` (centres unmarked) [Example 345] was tested, and the IC50 was less than 1000 nM.
Work on `N#Cc1ccc2c(=O)[nH]c(CSC3CCOCC3)nc2c1` [Example 1, 4-Oxo-2-(((tetrahydro-2H-pyran-4-yl)thio)methyl)-3,4-dihydroquinazoline-7-carbonitrile] yielded an IC50 greater than 10000 nM.
`CN1CC[C@H](COc2cc(F)c3c(=O)[nH]c(CS[C@H]4CC[C@H](O)CC4)nc3c2)[C@@H](F)C1` (relative stereo) [Example 334, 5-Fluoro-7-(((trans)-3-fluoro-1-methylpiperidin-4-yl)methoxy)-2-((((trans)-4-hydroxycyclohexyl)thio)methyl)quinazolin-4(3H)-one trifluoroacetic acid] gave an IC50 of less than 1000 nM.
`Cc1cc(Nc2ccc3c(=O)[nH]c(CSC4CCOCC4)nc3c2)on1` [Example 192, 7-((3-methylisoxazol-5-yl)amino)-2-(((tetrahydro-2H-pyran-4-yl)thio)methyl)quinazolin-4(3H)-one] gave an IC50 of less than 1000 nM.
`Cc1cccc2c(=O)[nH]c(CS[C@H]3CC[C@@H](CN(C)C)CC3)nc12` [Example 68, 2-(((cis-4-((Dimethylamino)methyl)cyclohexyl)thio)methyl)-8-methyl quinazolin-4(3H)-one Trifluoroacetate] showed an IC50 of 1000 to 10000 nM.
Compound `O=c1[nH]c(CS[C@H]2CCNC[C@@H]2F)nc2cc(NC3CCCC3)cc(F)c12` (relative stereo) [Example 210, 7-(Cyclopentylamino)-5-fluoro-2-(((trans-3-fluoropiperidin-4-yl)thio)methyl)quinazolin-4(3H)-one Hydrochloride] has an IC50 of less than 1000 nM.
With `Cn1ccnc1Nc1ccc2c(=O)[nH]c(CSC3CCOCC3)nc2c1` [Example 88, 7-((1-Methyl-1H-imidazol-2-yl)amino)-2-(((tetrahydro-2H-pyran-4-yl)thio)methyl)quinazolin-4(3H)-one] the IC50 was greater than 10000 nM.
Compound `O=c1[nH]c(CSC2CCOCC2)nc2cc(NC3CCC3)ccc12` [Example 122, 7-(Cyclobutylamino)-2-(((tetrahydro-2H-pyran-4-yl)thio)methyl)quinazolin-4(3H)-one] has an IC50 of less than 1000 nM.
